From patent US20250017964A1, “ENGINEERING OR INDUCING PDGF AND/OR PDGFR SIGNALING TO ENHANCE NK CELL THERAPY” (City of Hope, priority 2021, published 2025)
*1 amine or outer side, *2 acyl side, *3 side chain or, on linkers, in order; H or OH if unused. Where a SMILES comes first, the peptide text is derived from it. Bridges are numbered along the chain shown (N, C = ends). Roman numbers before positions name the chains, in order. [ ]: non-standard residue; d: D form. Actinocin(9to1) = Cc1c2oc3c(C)ccc(C(=O)[*:1])c3nc-2c(C(=O)[*:2])c(N)c1=O; NMeV = CN[C@H](C(=O)O)C(C)C; Sar = CNCC(=O)O

Columns and labels:
[1] = test system: IL-15-induced PDGFRβ expression; assay: Inhibition assay: IL-15-induced PDGFRβ expression after inhibitor pretreatment, flow cytometry; format: cell-based, human; settings: washed, IL-15 10 ng/ml 24 h; for inhibition of PDGFRβ expression: DMSO control
Procedure: FIGS. 2A-2I. […] (A-B) Primary NK cells were treated with IL-15 (10 ng/ml) for the indicated times. mRNA levels of PDGFRB at different time points (A) (n=3) or at 1 h (B) (n=10) were examined by qPCR. (C-D) Primary NK cells were pretreated with actinomycin D (ActD, 5., g/ml) (C) or cycloheximide (CHX, 20 μg/ml) (D) for 1 h, washed twice with RPMI-1640, and then treated with IL-15 (10 ng/ml) for 24 h. DMSO was used as a control. Expression levels of PDGFRβ were examined by flow cytometry (n=5). […] (E) Primary NK cells were pretreated with wortmannin (1 μM), afuresertib (10 μM), TPCA-1 (1 μM), rapamycin (10 μM), torin1 (10 μM), decernotinib (10 μM), C118-9 (10 μM), STAT5-IN-1 (10 μM), AZD6244 (10 μM), or CI-1040 (10 μM) for 1 h, washed twice with RPMI 1640, and then treated with IL-15 (10 ng/ml) for 24 h. DMSO was used as control. Data shown are % of inhibition (n=5). The mean value of the inhibitory rate is shown. […] (G-I) Binding of p65 to the PDGFRB promoter in IL-15-treated NK cells (G) or resting NK cells (H) as determined by ChIP-qPCR or PCR (I) (n=3). Data represent three independent experiments. Data shown are means SD. NS, not significant. *P<0.05, **P<0.01, ***P<0.001, and ****P<0.0001.
FIGS. 8A-8E. […] (A) Scheme for the three IL-15 signaling pathways and their inhibitors. (B) Representative dot plots of PDGFRβ expression in NK cells treated with specific inhibitors. (C) Binding sites for p65 in the promoter regions of PDGFRB and PDGF-D genes (predicted from http://jaspar.genereg.net). […] The cells were collected for an immunoblot using anti-phosphor (p)-p65, anti-p65, and anti-actin antibodies. The ratios of p-p65 to actin were calculated using ImageJ (n=3). Data shown represent the mean±SD. NS, not significant, **P<0.01, ****P<0.0001.
(§1) NK cells were cultured in RPMI 1640 with 10% heat-inactivated FBS (Gibco) at 37° C. in a 5% CO2 humidified incubator. For NK cell transduction, PDGFRB cDNA ORF clone (Cat: HG10514-G) was purchased from Sino Biological and cloned into pCDH-CMV-MCS-EF1-copGFP lentivirus vector (System Biosciences). To produce lentivirus, we transfected the lentiviral transfer vector DNA, together with psPAX2 packaging (Addgene) and pMD2.G envelope plasmid DNA (Addgene), into HEK293T cells; using a polyethyenimine (PEI) transfection protocol (Polysciences). Concentrated lentivirus was added to primary NK cells cultured in RPMI 1640 medium supplemented with 10% FCS and 10 jig/mL polybrene with 2,000×g centrifugation for 2 h. Cells were cultured for an additional 48 h. […] The cells were then collected for flow cytometry analysis. For the inhibition assay, NK cells were pretreated with the indicated inhibitors for 1 h, washed twice with RPMI 1640. and then treated with IL-15 for 24 h.
Cells were stained with the indicated cell-surface markers and/or fixed/permeabilized using a Fixation/Permeabilization Kit (eBioscience). For intracellular staining of IFN-γ and PDGF-D, 5 μg/ml Brefeldin A (BioLegend) was added for 4 h before cell harvest. Intracellular staining of Ki67 was performed by fixing and permeabilizing with the Foxp3/Transcription Factor Staining Kit (eBioscience). For CD107a staining, CD107a antibody was added into the culture for 4 h in the presence of Brefeldin A. Annexin V staining was performed using an FITC Annexin V Apoptosis Detection Kit according to the manufacturer's protocol (BD Biosciences). Flow cytometry analysis was performed on BD LSRFortessa X-20 (BD Biosciences). Data were analyzed using NovoExpress software (Agilent Technologies).

[2] = test system: PDGFRβ expression in human NK cells; assay: Cytokine-induced PDGFRβ expression in purified human NK cells, flow cytometry; format: cell-based; settings: cytokine 10 ng/ml, 24 h; IL-15 effect dose- and time-dependent
Source text: Data shown are the percentages of PDGFRβ^+ NK cells among total NK cells (n=5). […] Bar=20 μm. […] Data represent three independent experiments. Data shown are means SD.
FIGS. 7A-7F. […] Data shown are representative histograms and mean fluorescence intensity (MFI) of PDGFRα. […] Expression levels of PDGFRβ were examined by flow cytometry (n=6). […] Data shown are the percentages of PDGFRβ^+ NK cells among total NK cells (n=5). […] Data shown are representative histograms with MFI of PDGFRβ expression. (F) Expression levels of PDGFRβ on NK cells from IL-15 transgenic (Tg) mice were determined by flow cytometry. Data shown are representative histograms. Data represent three independent experiments.
as §1
Cells were stained with the indicated cell-surface markers and/or fixed/permeabilized using a Fixation/Permeabilization Kit (eBioscience). For intracellular staining of IFN-γ and PDGF-D, 5 μg/ml Brefeldin A (BioLegend) was added for 4 h before cell harvest. Intracellular staining of Ki67 was performed by fixing and permeabilizing with the Foxp3/Transcription Factor Staining Kit (eBioscience).

[3] = inhibitor 1 μM pretreatment 1 h
[4] = inhibitor 10 μM pretreatment 1 h

With `NC(=O)Nc1sc(-c2ccc(F)cc2)cc1C(N)=O` [TPCA-1] the “effect on IL-15-stimulated PDGFRβ expression” value [1, 3] was “completely prevented”.
With `Cn1cnc2c(F)c(Nc3ccc(Br)cc3Cl)c(C(=O)NOCCO)cc21` [AZD6244] the “effect on IL-15-induced PDGFRβ expression” value [1, 4] was “either little inhibition or even promoted”.
`C[C@@H]1C[C@@H]([C@H](O)CC2CC(=O)NC(=O)C2)C(=O)[C@@H](C)C1` [cycloheximide] was tested, and the “effect on IL-15-induced PDGFRβ expression” value ([1]; CHX, 20 μg/ml pretreatment 1 h) was “completely inhibited”.
`CCC(=O)N1CCN(c2ccc(-n3c(=O)ccc4cnc5ccc(-c6cnc7ccccc7c6)cc5c43)cc2C(F)(F)F)CC1` [torin1] was tested, and the “effect on IL-15-induced PDGFRβ expression” value [1, 4] was “dramatically and significantly blocked”.
For `O=C(N/N=C/c1coc2ccccc2c1=O)c1cccnc1` [STAT5-IN-1], the “effect on IL-15-induced PDGFRβ expression” value [1, 4] was “either little inhibition or even promoted”.
`CC[C@@](C)(Nc1ccnc(-c2c[nH]c3ncccc23)n1)C(=O)NCC(F)(F)F` [decemotinib, decernotinib] was tested, and the “effect on IL-15-induced PDGFRβ expression” value [1, 4] was “approximately one third”.
In the case of `Cc1c2oc3c(C)ccc(C(=O)N[C@@H]4C(=O)N[C@H](C(C)C)C(=O)N5CCC[C@H]5C(=O)N(C)CC(=O)N(C)[C@@H](C(C)C)C(=O)O[C@@H]4C)c3nc-2c(C(=O)N[C@@H]2C(=O)N[C@H](C(C)C)C(=O)N3CCC[C@H]3C(=O)N(C)CC(=O)N(C)[C@@H](C(C)C)C(=O)O[C@@H]2C)c(N)c1=O` [actinomycin D] (I: T[dV]P[Sar][NMeV] / II: T[dV]P[Sar][NMeV]; ester I:1-I:C, II:1-II:C; linker I:N-II:N via Actinocin(9to1)), the “effect on IL-15-induced PDGFRβ expression” value ([1]; ActD pretreatment 1 h) is reported as “no longer induced PDGFRβ expression”.
`O=C(NOCC1CC1)c1ccc(F)c(F)c1Nc1ccc(I)cc1Cl` [CI-1040] was tested, and the “effect on IL-15-induced PDGFRβ expression” value [1, 4] was “either little inhibition or even promoted”.
For `Cn1ncc(Cl)c1-c1cc(C(=O)N[C@H](CN)Cc2cccc(F)c2)sc1Cl` [afuresertib], the “inhibition of PDGFRβ expression” value [1, 4] was about 70%.
With IL-18: recombinant human IL-18 (B001-5) the PDGFRβ expression [2] was “ineffective”.
In the case of `COC[C@H]1OC(=O)c2coc3c2[C@@]1(C)C1=C(C3=O)[C@@H]2CCC(=O)[C@@]2(C)C[C@H]1OC(C)=O` [wortmannin], the “inhibition of PDGFRβ expression” value [1, 3] is reported as about 70%.
